Assay results taken from patent US10392363B2, “Methods for treating protozoan infections” (Neoculi Pty Ltd., priority 2014, dated 2019).

How the values were obtained:
[1] = system: Trypanosoma cruzi (Tulahuen trypomastigotes expressing β-galactosidase, in L6 cells); test: In vitro T. cruzi assay for determination of IC50; format: cell-based; conditions: 96 h incubation
Protocol: The T. cruzi assay uses Tulahuen trypomastigotes expressing the β-galactosidase gene. The parasites were maintained in vitro by serial passage in L6 cells. […] Extracellular trypomastigotes were then removed and NCL compounds were added in seven-point serial dilutions performed in triplicate. Benznidazole (Epichem Pty Ltd.) was included as a control. […] After 4-6 h, a colour change following catabolisation of the reagent by viable T. cruzi was observed and absorbance was read at 530 nm using a Dynex microplate reader. […] For each compound, % inhibition values were used to generate a standard curve from which the IC50 was calculated. Each assay was performed at least twice, and the average was used.

[2] = system: Leishmania donovani promastigotes; test: L. donovani screening (Alamarblue); format: cell-based; conditions: for inhibition at 10 µM: 96 hrs, read-out: reduction of metabolic activity / inhibition of L. donovani; for L. donovani SI: GI50 of macrophages divided by IC50 of parasites
Protocol: L. donovani Screening. Procyclic promastigotes from exponentially growing cultures maintained in DME-L+ Bob additions were used for all assays. Compounds were initially screened for activity at 10 μM. Compounds were diluted in culture media to a […] in 96 well plates. Promastigotes were diluted to a density of ˜8×10^5 cells/ml then added to the assay plate resulting in a final cell density of 4×10^5 cells/ml. in 96 well plates. Cells were incubated for 96 hrs at 27° C. before the addition of Alamarblue (thermofisher). Fluorescence was read at excitation 530 nm and Emission 590 nm. […] Compounds were serially diluted in thirds, in a 96 well plate, in cell growth media so that concentrations ranged from 0.005 to 10 μM and promastigotes added to a final concentration of 1×10^6 cells/ml. Cells were incubated at 27° C. for 72 hours before the addition of alamar blue. Fluorescence was measured as above.

[3] = system: Giardia duodenalis trophozoites; test: Resazurin reduction assay (Example 3); format: cell-based; conditions: 42 hours, then 6 hours with Alamarblue
Protocol: Giardia trophozoites were grown until confluent. The media was replaced with fresh media and they were cold shocked for 40 minutes (as above). Cells were diluted to a concentration of ˜500 000 cells/ml and 100 μl were added to each well of the assay plate (except media only control). The assay was incubated in an anaerobic environment (candle jar) for 42 hours at 37° C. […] After incubation the absorbance of each sample was read at 570 and 630 nm. The percent reduction of resazurin (Alamarblue™) was calculated and data was analysed with GraphPad Prism v6 software. Assay set-up: the assay was performed in 96 well plates in a total volume of 200 μl. 100 μl of NCL812 or NCL062 (concentration of 25.6 mg/ml in DMSO) or metronidazole (concentration 5 mg/ml in DMSO) stock was added to 9.9 ml of TYI-S-33 medium, then serially diluted 1:2 in the same medium. Cells were added as above.

[4] = system: T. brucei procyclic stage; test: T. brucei screening (alamar blue); format: cell-based, Trypanosoma brucei
Protocol: T. brucei screening. Procyclic promastigotes from exponentially growing cells maintained SDM-79 medium were used in all assays. Compounds were initially screened at 10 μM for activity. Compounds were diluted in culture media to a concentration of 20 μM and added to a 96 well plate, after addition of promastigotes (final concentration 4×10^5 cells/ml) compound concentration was 10 μM. Cells were incubated for 48 hrs at 27° C. before the addition of alamar blue and fluorescence measurement as described above. […] Compounds were serially diluted in thirds in culture media resulting in final concentrations ranging from 0.004-10 μM. Promastigotes were added at a final concentration of 4×10^5 cells/ml. Cells were incubated at 27° C. for 48 hours before addition of alamar blue. In addition promastigotes, at a concentration of 8×10^5 were exposed to NCL026 for 1.5 hours before removal of the drug via centrifugation at 5000 rpm for 7 minutes and resuspension of cells in culture media. Cells were incubated for 96 hours at 27° C. and observed daily for metabolic activity (alamar blue assay) and morphological changes. A control culture was exposed to DMSO instead of NCL026.

[5] = Cell toxicity assay (WST-1); format: cell-based, mouse; conditions: mouse, RAW 264.7 macrophages, RAW 264.7, 24 hours, read-out: GI50 macrophage
Protocol: Cell toxicity assays. Mouse macrophages (RAW 264.7) were grown in RPM11640 media supplemented with L-glutamine and 10% foetal calf serum. Cells were trypsanised when 80% confluent and subcultured every 3-4 days. For cytotoxicity assays cells were diluted to a final cell concentration of 2×10^4 cells/ml and 198 μl added to each well of a 96 well plate. Cells were incubated in a humidified incubator for 2 hours at 37° C. 5% CO2 before the addition of NCL compounds (2 μl/well, previously diluted in DMSO). Campothecin, triton X and DMSO only were used as controls. Cells were exposed to the compounds for 24 hours. The metabolic activity of the cells was determined using the WST-1 assay system (Roche Life Science). The supernatant was removed, 100 μl of PBS with 10% WST-1 was added to each well and incubated for 1 hr before reading absorbance at 450 nm. The selectivity index of the compounds was determined by dividing the IC50 of macrophages by the IC50 against parasites. IC50 was determined via graphpad prism software.

[6] = Trypanosoma cruzi, TULAHUEN, L6

Compound	IC50 [1, 6] [µM]	further results
O=C(N/N=C/c1cccc(C(F)(F)F)c1)N/N=C/c1cccc(C(F)(F)F)c1 [NCL011]	> 11	
N=C(NN=Cc1ccccc1Cl)NN=Cc1ccccc1Cl [NCL020]		IC50 [1]: 24 µM
N=C(N/N=C/c1ccc(F)cc1)N/N=C/c1ccc(F)cc1 [NCL021]	16	
N=C(N/N=C/c1cccc(F)c1)N/N=C/c1cccc(F)c1 [NCL023]	19	
N#Cc1ccccc1C=NNC(=N)NN=Cc1ccccc1C#N [NCL025]		IC50 [1]: 20 µM
COc1ccc(C=NNC(=N)NN=Cc2ccc(OC)cc2)cc1 [NCL027]		IC50 [1]: 14 µM
COc1cccc(/C=N/NC(=N)N/N=C/c2cccc(OC)c2)c1 [NCL029]	19	
N=C(N)N/N=C/c1ccc(Cl)cc1 [NCL030]	18	
N#Cc1ccccc1C=NNC(=N)N [NCL032]		IC50 [1]: 58 µM
N=C(N/N=C/c1ccc(C(F)(F)F)cc1)N/N=C/c1ccc(C(F)(F)F)cc1 [NCL035]	20	
N=C(NN=Cc1ccccc1C(F)(F)F)NN=Cc1ccccc1C(F)(F)F [NCL036]		IC50 [1]: 8.3 µM
N=C(NN=Cc1cccc(C(F)(F)F)c1)NN=Cc1cccc(C(F)(F)F)c1 [NCL037]		IC50 [1]: 16 µM
Cc1ccc(/C=N/NC(=N)N/N=C/c2ccc(C)cc2)cc1 [NCL038]	16	
Cc1ccccc1/C=N/NC(=N)N/N=C/c1ccccc1C [NCL039]	9.9	
Cc1cccc(/C=N/NC(=N)N/N=C/c2cccc(C)c2)c1 [NCL040]	16	
N=C(N)N/N=C/c1ccc(C(F)(F)F)cc1 [NCL041]	14	inhibition at 10 µM ([2]; Leishmania donovani): 100%
N=C(N)N/N=C/c1cccc(C(F)(F)F)c1 [NCL043]	16	
Cc1ccc(/C=N/NC(=N)N)cc1 [NCL044]	39	
N=C(N)N/N=C/c1cccc(Cl)c1 [NCL052]	15	
N=C(N/N=C/c1cccc(Cl)c1)N/N=C/c1cccc(Cl)c1 [NCL054]	19	

Compound	IC50 [1, 6] [µM]	further results
C/C(=N\NC(=N)N/N=C(\C)c1ccc(Cl)cc1)c1ccc(Cl)cc1.Cl [NCL062]		metabolic activity of the trophozoites (percentage of reduction of resazurin) [3]: reduction in the metabolic activity; inhibition at 10 µM ([2]; Leishmania donovani): 100%; reduction of metabolic activity / inhibitory effect on T. brucei ([4]; 10 μM, 48 hrs): greatest inhibitory effect; T. brucei SI ([4]; GI50 of macrophages divided by IC50 of parasites): 1.75; IC50 ([4]; Trypanosoma brucei, 48 h): 4.04 ± 0.83 µM; GI50 at 24 h [5]: 7.15 ± 1.27 µM
N=C(NN)N/N=C/c1ccc(Cl)cc1 [NCL072]	46	
C/C(=N\NC(=N)NN)c1ccc(C(F)(F)F)cc1 [NCL073]	24	
N=C(N/N=C/c1ccc(Cl)cc1)N/N=C/c1ccc(Cl)cc1Cl [NCL074]	33	
CC(=NNC(=N)NN=Cc1ccc(C(F)(F)F)cc1)c1ccc(C(F)(F)F)cc1 [NCL075]		IC50 [1]: 15 µM
Cc1ccc(C=NNC(=N)NN=Cc2ccc(Cl)cc2)cc1 [NCL076]		IC50 [1]: 19 µM
N=C(N/N=C/c1ccc(Cl)cc1)N/N=C/c1ccc(C(F)(F)F)cc1F [NCL078]	> 10	
N=C(N/N=C/c1ccc(F)cc1)N/N=C/c1ccc(Cl)cc1 [NCL079]	> 10	
C/C(=N\NC(=N)N/N=C/c1ccc(Cl)cc1)c1ccc(C(F)(F)F)cc1 [NCL080]	7.8	
C/C(=N\NC(=N)N/N=C/c1ccc(Cl)cc1)c1ccc(Cl)cc1 [NCL081]	20	
N=C(N/N=C/c1ccc(Cl)cc1)N/N=C/c1ccccc1Cl [NCL082]	22	
N=C(NN=Cc1ccc(Cl)cc1)NN=Cc1cccc(Cl)c1 [NCL083]		IC50 [1]: 16 µM
N=C(N/N=C/c1ccc(Cl)cc1)N/N=C/c1ccc(Cl)cc1F [NCL084]	22	
N#Cc1ccccc1C=NNC(=N)NN=Cc1ccc(Cl)cc1 [NCL085]		IC50 [1]: 20 µM
N#Cc1cccc(/C=N/NC(=N)N/N=C/c2ccc(Cl)cc2)c1 [NCL086]	14	
N#Cc1ccc(C=NNC(=N)NN=Cc2ccc(Cl)cc2)cc1 [NCL087]		IC50 [1]: 17 µM
N=C(N/N=C/c1ccc(Cl)cc1)N/N=C/c1ccccc1F [NCL088]	19	
C/C(=N\NC(=N)N/N=C(\C)c1ccc(C(C)(F)F)cc1)c1ccc(Cl)cc1 [NCL089]	3	
CN(C)c1ccc(/C=N/NC(=N)N/N=C/c2ccc(N(C)C)cc2)cc1.Cl [NCL113]		L. donovani SI [2]: highly selective; L. donovani SI ([2]; listed as NCL 113): 14; IC50 ([2]; Leishmania donovani, 72 h): 0.92 ± 0.06 µM; GI50 at 24 h [5]: 12.9 ± 3.49 µM
